Laboratory results published in patent US7531502B2, “Diagnostic conjugate useful for intracellular imaging and for differentiating between tumor- and non-tumor cells” (Deutsches Krebsforschungszentrum Stiftung Des Offentlichen …, priority 2002, dated 2009).

Test system: HeLa cervix carcinoma cells
Format: cell-based, human
Experimental: (a) Kinetic Studies: HeLa-cell-Uptake of the Gd-complex-transporter [without Address-sequence or with Either Antisense (ACGT)- or Random-sequence (RCGT)] Compared to Magnevist®. Living HeLa-cells were harvested and divided into tubes (Falcon) (Cell No.: 20×10^6 cells per tube). The Gd-complex-transporter without address-sequence and the Magnevist® were each dissolved in MEM culture medium in a concentration of 100 pM and were then incubated for 10, 20, 30 and 60 minutes. […] T1 and T2 relaxation-times within the pellets of both tubes were measured to evaluate the intracellular relaxivity of the respective contrast agents (R=1/T1). The T1-relaxation time was measured by means of an inversion-recovery-sequence (TR: 5000 ms/TE: 76 ms/TI: 25-4000 ms, 15 different TI-values, scan-time 15×25 sec, FOV: 160 mm×160 mm, Matrix: 132×256, slice thickness: 7 mm, pixel size: 1.21×0.63 mm). T2 relaxation-time was measured by a multi-echo-sequence (TR: 5000 ms/16 TE-values: 30 ms−245 ms, FOV: 250 mm×250 mm, Matrix: 256×256, slice thickness: 5 mm, pixel size: 0.98×0.98 mm, scan time: 21 min 21 sec). […] This procedure was repeated hourly until no signal increase compared to the control tube (HeLa cells or lymphocytes in MEM medium without contrast agent) could be detected in T1 weighted sequences.

## CNC[C@H](O)[C@@H](O)[C@H](O)[C@H](O)CO.CNC[C@H](O)[C@@H](O)[C@H](O)[C@H](O)CO.O=C([O-])CN(CCN(CC(=O)[O-])CC(=O)O)CCN(CC(=O)[O-])CC(=O)O.[Gd+3] [Magnevist®, reference compound]
HeLa cells, 100 pM, 1 hour incubation
  MR signal change compared with HeLa cells incubated solely in MEM: no signal change
HeLa-cell pellets after incubation, inversion-recovery T1 measurement
  relaxivity R (R=1/T1) within the HeLa-cell pellets: 0.000995
